Consider 105 compounds from PubChem BioAssay AID1648 (Sanford-Burnham Center for Chemical Genomics, 2009).

Active and inactive are the calls of the source. How the calls were made is not given here.

Serine/threonine-protein kinase mTOR (Homo sapiens), sequence (P42345 2015-2114): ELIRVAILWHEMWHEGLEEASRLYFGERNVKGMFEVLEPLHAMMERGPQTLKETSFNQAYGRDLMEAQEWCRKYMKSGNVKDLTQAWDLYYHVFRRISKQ

The test addresses Serine/threonine-protein kinase mTOR (Homo sapiens) (UniProt P42345). Put plainly: mTOR FRB domain ligand binding – biophysical, NMR (AID 1648). As to conditions: NMR binding to FRB domain, chemical shift.
In general, Kd refers to a measure of binding affinity in units of concentration. On to `Nc1ccccc1C(=O)CC(N)C(=O)O` (stereo not given), for which the Kd was > 4 mM (inactive).

As to `O=C(NC(=S)NC1CCSC1=O)c1ccco1` (stereo not given), the Kd is > 4 mM (inactive).

Regarding `Oc1ccc(-n2ccnc2)cc1`, the Kd was > 4 mM (inactive).

`CC12CCCC(O)(C1)C1CC(C)(C)C1CC2` (stereo not given): the Kd is > 4 mM (inactive).

On to `COc1ccc(C(=O)/C=C2\NC(=S)NC2=O)cc1`, for which the Kd was > 4 mM (inactive).

`Cc1cc(C)cc(C(=O)n2cnnc2N)c1`: the Kd was > 4 mM (inactive).

On to `Nc1cccc(-n2cccc2)c1`, for which the Kd was > 4 mM (inactive).

Consider `c1ccc(Cc2nnc(-c3ccccc3)o2)cc1`, for which the Kd was > 4 mM (inactive).

For `Cc1c(F)cccc1NS(=O)(=O)c1ccccc1C#N`, the Kd is > 4 mM (inactive).

As to `O=C(Nc1ccc2c(c1)OCO2)c1cnn2cccnc12`, the Kd was > 4 mM (inactive).

With `Cc1nccc(-c2cccc(N)c2)n1`, the Kd is > 4 mM (inactive).

With `Cc1noc(C)c1C(=O)Nc1ccccc1-c1ccccc1`, the Kd is > 4 mM (inactive).

For `CC1(C)C2CC[C@]3(C)C(C(=O)C=C4[C@H]5C[C@@](C)(C(=O)O)CC[C@]5(C)CC[C@]43C)[C@@]2(C)CC[C@@H]1O` (stereo not given in full), the Kd was > 4 mM (inactive).

Take `COc1cc(OC)c2c(c1Cl)OC1(C2=O)C(O)=CC(=O)CC1C` (stereo not given): the Kd is > 4 mM (inactive).

`CN=C(C)c1c(O)n(C)c(=O)n(C)c1=O`: the Kd was > 4 mM (inactive).

Consider `NC(=O)CSc1nc2ncnc(N)c2[nH]1`, for which the Kd is > 4 mM (inactive).

As for `Cc1cc(C(=O)Nn2cnnc2)cs1`, the Kd is > 4 mM (inactive).

Take `CCC(C)C(=O)c1c(O)c(C)c2oc3c(C)c(O)c(C(=O)C(C)CC)c(O)c3c2c1O` (stereo not given): the Kd is > 4 mM (inactive).

Consider `CC[C@@]1(O)C[C@H](O)c2c(cc3c(c2O)C(=O)c2c(O)ccc(O)c2C3=O)[C@H]1C(=O)OC`, for which the Kd is > 4 mM (inactive).

For `NC(=O)C1CCN(c2nccc(C(F)(F)F)n2)CC1`, the Kd is > 4 mM (inactive).

Regarding `O=C(/C=C/c1ccccc1)c1ccc(O[C@@H]2O[C@H](CO)[C@@H](O)[C@H](O)[C@H]2O)cc1O`, the Kd was > 4 mM (inactive).

As to `CS(=O)(=O)N1CCN(C(=O)c2ccccc2)CC1`, the Kd is > 4 mM (inactive).

On to `O=S(=O)(O)c1cc[n+]([O-])cc1`, for which the Kd is > 4 mM (inactive).

As for `CC(=O)NC12CC3CC(CC(O)(C3)C1)C2`, the Kd was > 4 mM (inactive).

For the compound `CCOC(=O)c1c(C)nc2cc(C)ccn12`, the Kd is > 4 mM (inactive).

As to `O=C1O[C@H](C(O)CO)C(O)=C1O` (stereo not given in full), the Kd was > 4 mM (inactive).

Consider `CSc1ncc(C(=O)O)n1Cc1ccccc1`, for which the Kd is > 4 mM (inactive).

Regarding `CN1CCN(c2ccc(C(=O)O)cc2)CC1`, the Kd was > 4 mM (inactive).

In the case of `c1n[nH]cc1-c1cn[nH]c1`, the Kd is > 4 mM (inactive).

Turning to `COC(=O)C1CSCC1=O` (stereo not given), the Kd was > 4 mM (inactive).

In the case of `O=C(CO)N/N=C/c1ccccc1F`, the Kd was > 4 mM (inactive).

As to `Cc1ccc(-c2nc(-c3cccnc3)no2)c(C)c1`, the Kd is > 4 mM (inactive).

Regarding `CC1(C)Cn2c(nnc2-c2ccccc2)S1`, the Kd is > 4 mM (inactive).

Take `OCc1ccc2occc2c1`: the Kd is > 4 mM (inactive).

With `C=CCCCCCCCCCCCC(O)CC(O)CO` (stereo not given) (tested in a mixture with another compound), the Kd was > 4 mM (inactive).

For `Cc1nnsc1C(=O)N(C)c1ccccc1`, the Kd was > 4 mM (inactive).

For the compound `Cc1cc(SCC(=O)Nc2nccs2)nc(=O)[nH]1`, the Kd is > 4 mM (inactive).

Turning to `COc1cccc(-c2cc(=O)c3cc(OC)ccc3o2)c1`, the Kd was > 4 mM (inactive).

Consider `CC(=O)NN1C(=O)c2cccc3cccc(c23)C1=O`, for which the Kd was > 4 mM (inactive).

As to `COc1ccc2[nH]cc(CN(C)C)c2c1`, the Kd is > 4 mM (inactive).

Take `NCCc1cnc[nH]1`: the Kd was > 4 mM (inactive).

For `COCC(=O)N1CCCc2ccccc21`, the Kd is > 4 mM (inactive).

As for `O=C(Nc1ccc(Cl)cc1)N1CCCC1`, the Kd is > 4 mM (inactive).

Turning to `O=C(O)C1=CCCNC1`, the Kd was > 4 mM (inactive).

Regarding `CC(=O)Nn1c(=O)[nH]c2ccccc2c1=O`, the Kd is > 4 mM (inactive).

As to `COc1cccc(-c2nn(-c3ccccc3)cc2CO)c1`, the Kd was > 4 mM (inactive).

As for `CC1CCN(C(=O)c2cc3ccccc3o2)CC1`, the Kd was > 4 mM (inactive).

For `Cc1cc(O)c(C)c(O)c1C(=O)O`, the Kd is > 4 mM (inactive).

For the compound `CN1CCC(NC(=S)NC2CC2)CC1`, the Kd is > 4 mM (inactive).

With `Cc1cccc(NC(=O)c2ccc(=O)[nH]n2)c1`, the Kd is > 4 mM (inactive).

For `CCOC(=O)N1CCN(c2ncnc3c2cnn3C)CC1`, the Kd is > 4 mM (inactive).

For the compound `O=[N+]([O-])c1cccc2c1nnn2C(CO)OCCO` (stereo not given), the Kd was > 4 mM (inactive).

On to `Cc1cc(NC(=O)Cc2cccs2)no1`, for which the Kd is > 4 mM (inactive).

Take `Cc1cc(=O)n2[nH]c(C)cc2n1`: the Kd is > 4 mM (inactive).

As to `CP(C)(=O)CCC(=O)O`, the Kd was > 4 mM (inactive).

For `Cn1c([O-])c([N+](C)(C)C)c(=O)n(C)c1=O`, the Kd is > 4 mM (inactive).

Take `Cc1c(C)[n+]([O-])c(-c2ccc([N+](=O)[O-])cc2)n1O`: the Kd was > 4 mM (inactive).

For `COc1ccc2c(c1)[nH]c1c(C)nccc12`, the Kd is > 4 mM (inactive).

In the case of `CN1CCN(CC(=O)N2CCc3ccccc32)CC1`, the Kd was > 4 mM (inactive).

Turning to `O=C(c1ccncc1)N1CCN(C(=O)c2ccncc2)CC1`, the Kd is > 4 mM (inactive).

Turning to `C[C@H]1C(=O)O[C@@H]2CCN3CC=C(COC(=O)[C@](C)(O)[C@]1(C)O)[C@H]23`, the Kd is > 4 mM (inactive).

For the compound `O=C(c1ccccc1)N1CCOCC1`, the Kd is > 4 mM (inactive).

Consider `CC(=O)NC(O)C(=O)c1cccs1` (stereo not given), for which the Kd is > 4 mM (inactive).

Take `CN1CCN(Cc2cccnc2)CC1`: the Kd is > 4 mM (inactive).

As for `Cc1sc(N)c(C(N)=O)c1C`, the Kd was > 4 mM (inactive).

For the compound `CN1CCC(N(C)Cc2cccnc2)CC1`, the Kd was > 4 mM (inactive).

`O=C(Nc1ccc(Cl)cn1)c1cnn2cccnc12`: the Kd is > 4 mM (inactive).

`O=C(Cn1cncn1)c1ccc(F)c(F)c1`: the Kd was > 4 mM (inactive).

As to `O=C(NCN1CCOCC1)c1cnccn1`, the Kd was > 4 mM (inactive).

Regarding `O=C1CCC(=O)N1CNc1ccccc1`, the Kd was > 4 mM (inactive).

For `NC(=O)CN1CCCCCC1=O`, the Kd is > 4 mM (inactive).

Turning to `O=c1[nH]c2c(c(=O)n1C1CCCCC1)CCC2`, the Kd is > 4 mM (inactive).

As to `O=c1ccc2cc(O)c(O)cc2o1`, the Kd was > 4 mM (inactive).

Turning to `COc1ccc(-c2cn[nH]c2N)c(OC)c1`, the Kd was > 4 mM (inactive).

In the case of `COC1=CC(=O)C(O)=C/C1=C\C=C\c1ccccc1`, the Kd is > 4 mM (inactive).

With `NC(CSCSCC(N)C(=O)O)C(=O)O` (stereo not given), the Kd was > 4 mM (inactive).

With `CSCCNC(C)=O`, the Kd was > 4 mM (inactive).

Regarding `Cc1scc(C(=O)Nn2cnnc2)c1-c1ccccc1`, the Kd was > 4 mM (inactive).

For `CC(=O)c1cccc(N=C2NC(=O)CS2)c1`, the Kd is > 4 mM (inactive).

Consider `O=C(O)/C=C/C=C/c1ccccc1`, for which the Kd was > 4 mM (inactive).

As for `NC(=O)c1ccc(Cl)c(N2C(=O)CCC2=O)c1`, the Kd is > 4 mM (inactive).

As to `CCn1nnc2c(NCc3ccccn3)ncnc21`, the Kd was > 4 mM (inactive).

Consider `CN(C)C(=O)c1ccc(-c2n[nH]c(=O)c3ccccc23)cc1`, for which the Kd is > 4 mM (inactive).

Take `C=CCSc1[nH]c(=O)cc(C)c1C(N)=O`: the Kd was > 4 mM (inactive).

As to `C=C1C2CC[C@@]3(C)[C@H](c4ccoc4)OC(=O)C[C@]13O[C@H]1CC(O)C(C)(C)C(CC(=O)OC)[C@@]21C` (stereo not given in full), the Kd is > 4 mM (inactive).

Take `COC(=O)CSc1n[nH]c(N)n1`: the Kd was > 4 mM (inactive).

`CCOC(=O)c1[nH]c(C)cc1C`: the Kd was > 4 mM (inactive).

Take `O=c1c(-c2ccco2)[n+]([O-])c2ccccc2n1O`: the Kd is > 4 mM (inactive).

For the compound `Cc1cc(C)c(-c2cc(C(F)(F)F)no2)c(=O)[nH]1`, the Kd was > 4 mM (inactive).

Take `c1ccc2c(c1)CN1CCCC1=N2`: the Kd is > 4 mM (inactive).

As to `CC(=O)Nc1c(C#N)c(C(C)(C)C)cn1C`, the Kd was > 4 mM (inactive).

With `Nc1nc(-c2ccccc2)ns1`, the Kd is > 4 mM (inactive).

On to `COC(=O)Nc1c(C)n(C)n(-c2ccccc2)c1=O`, for which the Kd is > 4 mM (inactive).

As to `NCc1n[nH]c(=O)c2ccccc12`, the Kd was > 4 mM (inactive).

On to `Cc1nc2ccc(F)cc2cc1C(=O)NCc1ccco1`, for which the Kd is > 4 mM (inactive).

Consider `Cc1nnc(NCCO)[nH]c1=O`, for which the Kd was > 4 mM (inactive).

For `O=S(=O)(Cc1ccccc1)N1CCCCCC1`, the Kd is > 4 mM (inactive).

Regarding `Cn1c(=O)c2ccccc2n(Cc2ccccc2F)c1=O`, the Kd was > 4 mM (inactive).

With `Cc1ccc(C)c(C(=O)n2cnnc2N)c1`, the Kd is > 4 mM (inactive).

`O=c1c2ccccc2oc2ccc(O)cc12`: the Kd was > 4 mM (inactive).

Turning to `COc1ccc(C2(C)NC(=O)NC2=O)cc1` (stereo not given), the Kd is > 4 mM (inactive).

`C[C@@H]1O[C@@H](O[C@H]2[C@H](Oc3cc(O)c4c(=O)cc(-c5ccc(O)cc5)oc4c3)O[C@H](CO)[C@@H](O)[C@@H]2O)[C@H](O)[C@H](O)[C@H]1O`: the Kd was > 4 mM (inactive).

As for `COc1nc(C#N)c(N2CCOCC2)o1`, the Kd was > 4 mM (inactive).

With `Cc1csc2nc3ccccc3c(=O)n12`, the Kd was > 4 mM (inactive).

Regarding `O=C1C=CC(=O)N1c1ccc(N2CCOCC2)cc1`, the Kd is > 4 mM (inactive).
